Test results taken from ChEMBL document CHEMBL3228041, “Propiolaldehyde, a pargyline metabolite that irreversibly inhibits aldehyde dehydrogenase. Isolation from a hepatic microsomal system” (J Med Chem, 1979).
Calls of active or inactive are those of the source. The rule behind the calls is not given here.

Tests used:
Rattus norvegicus [1] = species: Rattus norvegicus; experiment: Induction of ethanol-derived blood acetaldehyde level in 0.1% phenobarbital for 8 days pretreated Sprague-Dawley rat measured after 2 hrs of acute ethanol dose; format: functional, organism-based
Rattus norvegicus [2] = species: Rattus norvegicus; experiment: Inhibition of Sprague-Dawley rat liver mitochondrial aldehyde dehydrogenase at 1 mM at 38 degC in presence of 0.25 M sucrose relative to control; conditions: TDE = time-dependent effect
Rattus norvegicus [3] = species: Rattus norvegicus; experiment: Inhibition of Sprague-Dawley rat liver mitochondrial aldehyde dehydrogenase at 1 mM after 5 mins at 0 degC in presence of 0.25 M sucrose relative to control
Liver microsome = experiment: Drug level in Sprague-Dawley rat liver microsomes treated with phenobarbital by GC-MS analysis in presence of NADPH; format: ADME
Rattus norvegicus [4] = species: Rattus norvegicus; experiment: Inhibition of Sprague-Dawley rat liver mitochondrial aldehyde dehydrogenase at 1 mM after 5 mins at 25 degC in presence of 0.25 M sucrose relative to control
Rattus norvegicus [5] = species: Rattus norvegicus; experiment: Inhibition of Sprague-Dawley rat liver mitochondrial aldehyde dehydrogenase assessed as complete inhibition at 1 mM measured after 5 to 10 mins at 38 degC in presence of 0.25 M sucrose
Rattus norvegicus [6] = species: Rattus norvegicus; experiment: Inhibition of Sprague-Dawley rat liver mitochondrial aldehyde dehydrogenase at 1 mM measured immediately after compound addition at 38 degC in presence of 0.25 M sucrose relative to control
Rattus norvegicus [7] = species: Rattus norvegicus; experiment: Irreversible inhibition of Sprague-Dawley rat liver mitochondrial aldehyde dehydrogenase at 1 mM incubated for 10 mins at 38 degC in presence of 0.25 M sucrose followed by compound washout measured relative to control

inhibition (Rattus norvegicus [2])	inhibition (Rattus norvegicus [3])	Drug metabolism (Liver microsome)	inhibition (Rattus norvegicus [4])	inhibition (Rattus norvegicus [5])	inhibition (Rattus norvegicus [6])	inhibition (Rattus norvegicus [7])	Structure (SMILES)	Activity (Rattus norvegicus [1])
							C#CCN(C)Cc1ccccc1	Active
tde	32%	metabolite_detected	45%	Active	43%	Active	C#CC=O [PROPYNAL]	
